The values that follow come from patent publication US6114391A, “α-amino acid amides, preparation thereof and the therapeutical use thereof” (priority 1996, dated 2000).

“Also recorded” adds a separate entry of the source. Like-named read-outs stand apart in the source and are kept apart here.

One series has as its system convulsions. The note with it: WO 95/18617 and WO 96/21640; cited from earlier work.
In another series the test system is motor function, mouse. Description: horizontal screen test in mouse (impaired motor function, neurotoxicity; therapeutic index). Type of series: in vivo. The following applies: for T.I. (therapeutic index): ratio of TD50 (horizontal screen) and ED50 (MES), mouse p.o.; for T.I. (in words) / neurotoxicity / impairment of motor coordination (in words): mouse; for T.I. (in words): TD50/ED50; for neurotoxicity / impairment of motor coordination (in words): p.o., horizontal screen. The procedure:
(§1) In this model mice are placed individually on top of a squire wire screen which is mounted horizontally on a metal rod, which is then rotated 180° so that mice are on the bottom of the screens. Impairment of the motor function is observed from the number of animals that falls from the screen or fail to climb to the top of the screens. The medial neurological toxic dose (TD50) is than calculated as above. The ratio of TD50 and ED50 refers to the therapeutic index (T.I.) for each compound. The T.I. is used to show a useful separation between neurotoxicity and antiepileptic activity. The larger the T.I. would indicate a better separation between the above activities and a good profile as anticonvulsants.

Experiment in series [1]: as above
It is filed as in vivo. The following applies: po, mouse. As to the method: as §1

Series [2] has as its system tonic convulsions induced by bicuculline, mouse. Briefly: bicuculline-induced tonic convulsions in mouse. The following applies: for anticonvulsant activity against bicuculline (in words): p.o.; for ED50: po, bicuculline s.c. It is filed as in vivo. The procedure:
Further to the MES test in mouse, some compounds were also evaluated in the MES test in rat and in a chemical model of tonic convulsions induced by bicuculline accordingly to the procedure described in Swinyard E. A. et al., Antiepileptic Drugs, 3rd Edition, Raven Press, New York (1989).
As reference compound FCE 26743 (S)-2-(4-(3-fluorobenzyloxy)benzylamino)propanamide was used, disclosed in the prior art in EP-B1-0400495.

Series [3] deals with tonic hind limb extensions (maximal electroshock), mouse. Briefly: maximal electroshock (MES) test in mouse, suppression of tonic hind limb extensions. It is filed as in vivo. The note with it: for ED50: po, 1 h, read-out: ED50 MES.
Method: The compounds of the invention were evaluated in some pharmacological tests in order to investigate their potential anticonvulsant activity. To this end, compounds were screened in the maximal electroshock (MES) test. […] Briefly, a 60 Hz alternate current (mice 50 mA, rats 150 mA) was delivered for 0.2 sec through corneal electrods by means of an electrical stimulator. […] Groups of 10 animals per dose were used and the ED50 was calculated from the dose-effect curve accordingly to Litchfield and Wilcoxon (J. Pharmacol. Exp. Ther., 96 (1949), 99-113).
Series [4] has as its system tonic hind limb extensions (maximal electroshock), rat. Briefly: maximal electroshock (MES) test in rat, incl. time course of anticonvulsant activity. It is filed as in vivo. The following applies: for Duration of action (time at which the protection is statistically significant) / Peak of activity (time of the maximal effect): MES, equiactive dose; for Duration of action (time at which the protection is statistically significant) / Peak of activity (time of the maximal effect) / ED50 / anticonvulsant activity in rat MES (in words): rat; for Duration of action (time at which the protection is statistically significant) / Peak of activity (time of the maximal effect) / anticonvulsant activity in rat MES (in words): p.o.; for ED50: po. The procedure:
The compounds of the invention were evaluated in some pharmacological tests in order to investigate their potential anticonvulsant activity. To this end, compounds were screened in the maximal electroshock (MES) test. This model is widely used to assess the efficacy of antiepileptic agents against generalized and partial seizures. This study was performed in both rat and mouse by using the experimental procedure described in W. Losher et al., Epilepsy Res., 2 (1988), 145-181. Briefly, a 60 Hz alternate current (mice 50 mA, rats 150 mA) was delivered for 0.2 sec through corneal electrods by means of an electrical stimulator. […] Groups of 10 animals per dose were used and the ED50 was calculated from the dose-effect curve accordingly to Litchfield and Wilcoxon (J. Pharmacol. Exp. Ther., 96 (1949), 99-113).
In the rat MES model only the time course of anticonvulsant activity was evaluated. Groups of 10 rats were treated at their equiactive dose 30, 60, 120, 240, 360 and 480 min before the establishment of the electroshock. The peak of anticonvulsant activity and the duration of action were then evaluated.
A general note: Protection in the maximal electroshock model is a classic sign of anticonvulsant action.

Series [5] concerns electro-shock convulsions, mouse. The following applies: claimed in WO 94/22808; cited from earlier work.
The conditions of series [6]: in vivo; cited from earlier work.
Setting [7] is: horizontal screen test, p.o., HCl salts, read-out: TD50 Horizontal screen.
Setting [8] is: mouse, p.o., 60 min after administration, HCl salts.
Where [9] appears, read: in vivo, p.o., HCl salts, read-out: TD50 Horizontal screen.

Consider `NC(=O)CNC1CCc2ccccc21` (racemic) [racemic N-(2-acetamido)-1-aminoindan, N-(2-acetamido)-1-aminoindan], for which, in the series on convulsions, the “anticonvulsant activity (in words)” value is listed as “not very effective” and the “therapeutic index (in words)” value is listed as “don't seem endowed with a particularly favorable therapeutic index”.
As to `NC(=O)[C@@H](CO)N[C@H]1CCc2ccccc2C1` [CHF 2983, 3-hydroxy-2-(R)-(1,2,3,4-tetrahydro-naphthalen-2-(S)ylamino)propanamide], the “T.I. (therapeutic index)” value in the series on motor function, mouse is given as 30. In series [1] (setting [7]), the TD50 (as a rule, the dose at which the toxic effect under study appears in half of the subjects) was determined as 1300 mg/kg. Besides, in series [2], the “anticonvulsant activity against bicuculline (in words)” value is “in the same order of potency of their MES anticonvulsant activity” and the median effective dose (ED50) (as a rule, the dose at which the effect has come halfway, by size or by number of responders) was 62 mg/kg. The “anticonvulsant activity / potency in MES (in words)” value (shortened to “anticonvulsant activity / potency”) in series [3] (mouse, p.o.) is on record as “A good profile of anticonvulsant activity”. The ED50 in series [3] (setting [8]) worked out at 43 mg/kg. Besides, in series [4], the “Duration of action (time at which the protection is statistically significant)” value worked out at 2 h, the “Peak of activity (time of the maximal effect)” value (shortened to “Peak of activity”) amounted to 1 h, the ED50 stood at 19 mg/kg and the “anticonvulsant activity in rat MES (in words)” value is given as “more potent”.
For the molecule `NC(=O)[C@H](CO)N[C@@H]1CCc2ccccc2C1` [CHF 2991], the “T.I. (therapeutic index)” value in the series on motor function, mouse is on record as 29. Moreover, the TD50 in series [1] (setting [7]) was 1100 mg/kg. Further, in series [3] (mouse, p.o.), the “anticonvulsant activity / potency” value is listed as “A good profile of anticonvulsant activity”. Moreover, the median effective dose (ED50) in series [3] (setting [8]) came to 38 mg/kg.
Consider `Cl.NC(=O)[C@H](CO)NC1Cc2ccccc2C1` [CHF 2993, (S)-3-hydroxy-2-(2-indanylamino)propanamide hydrochloride], for which the “T.I. (therapeutic index)” value in the series with motor function, mouse is reported as 27. For the same molecule, the TD50 in series [1] (setting [9]) came to 1170 mg/kg. In series [2], the “anticonvulsant activity against bicuculline (in words)” value was “in the same order of potency of their MES anticonvulsant activity” and the ED50 was determined as 65 mg/kg. Also, the “anticonvulsant activity / potency” value in series [3] (mouse, p.o.) is listed as “equipotent in the MES test”. In addition, in series [3] (setting [8]), the ED50 came out at 44 mg/kg. Further, the “duration of action (in words)” value in series [4] (MES time course) is “longest duration of action”. In addition, in series [4], the “Duration of action (time at which the protection is statistically significant)” value turned out to be 6 h, the “Peak of activity” value stood at 3 h, the ED50 turned out to be 31 mg/kg and the “anticonvulsant activity in rat MES (in words)” value is “anticonvulsant activity close to that found in the same model in mouse”.
Turning to `NC(=O)[C@@H](CO)NC1Cc2ccccc2C1` [CHF 2996], in the series on motor function, mouse, the “T.I. (in words)” value is “higher T.I”, the “neurotoxicity / impairment of motor coordination (in words)” value (from here on “neurotoxicity / impairment”) is reported as “low value of neurotoxicity” and the “T.I. (therapeutic index)” value is listed as 44. For the same molecule, the TD50 in series [1] (setting [7]) was more than 1500 mg/kg. In addition, the “anticonvulsant activity / potency” value in series [3] (mouse, p.o.) is “equipotent in the MES test”. The 50% effective dose (ED50) in series [3] (setting [8]) came out at 34 mg/kg. Further, in series [4], the “Duration of action (time at which the protection is statistically significant)” value worked out at 2 h, the “Peak of activity” value came to 1 h, the 50% effective dose (ED50) is 32 mg/kg and the “anticonvulsant activity in rat MES (in words)” value is listed as “anticonvulsant activity close to that found in the same model in mouse”.
Turning to `Cl.NC(=O)CNC1Cc2ccccc2C1` [CHF 3381, 2-(2-indanylamino)acetamide hydrochloride], in the series with motor function, mouse, the “T.I. (in words)” value was “higher T.I. than the prior art 1-aminoindane compound 2”, the “neurotoxicity / impairment” value is “more neurotoxic” and the “T.I. (therapeutic index)” value stood at 13. Moreover, the TD50 in series [1] (setting [9]) turned out to be 274 mg/kg. In series [3] (Mus musculus), the 50% effective dose (ED50) was 21 mg/kg. Besides, the “anticonvulsant activity / potency” value in series [3] (mouse, p.o., hydrochloride) is “more potent in inhibiting MES; also recorded: more potent as an anticonvulsant than the 1-aminoindane of the prior art”.
With `C[C@H](NC1Cc2ccccc2C1)C(N)=O` [CHF 3431, (S) 2-(2-indanylamino)propionamide], in the series with motor function, mouse, the “neurotoxicity / impairment” value is reported as “more neurotoxic” and the “T.I. (therapeutic index)” value stood at 11. In addition, the TD50 in series [1] (setting [7]) turned out to be 251 mg/kg. Further, the “anticonvulsant activity / potency” value in series [3] (mouse, p.o.) is given as “more potent in inhibiting MES”. Also, the median effective dose (ED50) in series [3] (setting [8]) turned out to be 22 mg/kg.
Consider `CN(C1Cc2ccccc2C1)[C@H](CO)C(N)=O.Cl` [CHF 3440, (R)-3-hydroxy-2-(N-methyl-2-indanylamino)propanamide hydrochloride], for which, in the series on motor function, mouse, the “neurotoxicity / impairment” value was “increase of the neurotoxicity” and the “T.I. (therapeutic index)” value is on record as 20. The TD50 in series [1] (setting [9]) was 689 mg/kg. In addition, in series [3] (mouse, p.o.), the “anticonvulsant activity / potency” value was “same anticonvulsant activity”. Moreover, the 50% effective dose (ED50) in series [3] (setting [8]) amounted to 35 mg/kg.
Turning to `C[C@H](NCc1ccc(OCc2cccc(F)c2)cc1)C(N)=O` [FCE 26743, (S)-2-(4-(3-fluorobenzyloxy)benzylamino)propanamide, reference compound], in series [2], the “anticonvulsant activity against bicuculline (in words)” value was “in the same order of potency of their MES anticonvulsant activity” and the ED50 was determined as 20 mg/kg. For the same molecule, in series [4], the “Duration of action (time at which the protection is statistically significant)” value was 1 h, the “Peak of activity” value was 0.5 h, it took a dose of 11 mg/kg to reach the 50% effect level (ED50) and the “anticonvulsant activity in rat MES (in words)” value was “anticonvulsant activity close to that found in the same model in mouse”.
Turning to `CS(=O)(=O)O.NC(=O)C(CO)NCc1ccc(OCCCc2ccccc2)cc1` (stereo not shown) [FCE 28245, 3-hydroxy-2-(4-(3-phenylpropyloxy)benzylamino)propanamide methanesulphonate, reference compound], the “T.I. (therapeutic index)” value in the series with motor function, mouse is reported as 9. The TD50 in series [1] (in vivo) turned out to be 1670 mg/kg. In series [5], the “anticonvulsant activity in electro-shock convulsions (in words)” value is given as “claimed to be active”. Also, the ED50 in series [3] (setting [8]) amounted to 180 mg/kg.
With `NC(=O)CN(CC(N)=O)C1CCc2ccccc21` (stereo not shown) [N,N-di-(2-acetamido)-1-aminoindan], in the series on convulsions, the “anticonvulsant activity (in words)” value is “not very effective” and the “therapeutic index (in words)” value is recorded as “don't seem endowed with a particularly favorable therapeutic index”.
Take `NC(=O)CNC1CCCc2ccccc21` (stereo not shown) [N-(2-acetamido)-1-aminotetralin]: in the series on convulsions, the “anticonvulsant activity (in words)” value was “not very effective” and the “therapeutic index (in words)” value is reported as “don't seem endowed with a particularly favorable therapeutic index”.
In the case of `NC(=O)CNC1CCc2ccc(F)cc21` (stereo not shown) [N-(2-acetamido)-6-fluoro-1-aminoindan], in the series with convulsions, the “anticonvulsant activity (in words)” value is given as “not very effective” and the “therapeutic index (in words)” value is “don't seem endowed with a particularly favorable therapeutic index”.
On to `CC(NC1CCc2ccccc21)C(N)=O` (stereo not shown) [N-(2-propionamido)-1-aminoindan], for which, in the series with convulsions, the “anticonvulsant activity (in words)” value is given as “not very effective” and the “therapeutic index (in words)” value was “don't seem endowed with a particularly favorable therapeutic index”.
On to `NC(=O)CN[C@H]1CCc2ccccc21` [TEVA Comp. 2, (S)-2-(indanylamino)acetamide, reference compound], for which the “T.I. (therapeutic index)” value with motor function, mouse came out at 8. Moreover, the TD50 in series [1] (in vivo) amounted to 299 mg/kg. For the same molecule, the ED50 in series [3] (setting [8]) was determined as 38 mg/kg.
Consider `NC(=O)N1c2ccccc2C=Cc2ccccc21` [carbamazepine], for which, in series [6], the “therapeutic index (in words)” value was “smaller therapeutic indexes”.
Take `O=C1NC(=O)C(c2ccccc2)(c2ccccc2)N1` [phenytoin]: in series [6], the “therapeutic index (in words)” value is reported as “smaller therapeutic indexes”.
